Laboratory results reported in patent US5763596A, “C-4' modified adenosine kinase inhibitors” (Metabasis Therapeutics, Inc., priority 1996, dated 1998).
Counter-ions that a name gives are not always drawn.

Columns and labels:
adenosine kinase = adenosine kinase (AK) inhibition; assay type: biochemical, pig heart or recombinant human; settings: 0.5 μM [U-14C] adenosine, pH 7.0, 20 minutes
Protocol: Adenosine kinase activity was measured essentially as described by Yamada et al. (Yamada, Y., Goto, H., Ogasawara, N. (1988) Biochim. Biophys. Acta 660, 36-43.) with a few minor modifications. […] Natl. Acad. Sci. […] The reactions were incubated for 20 minutes at […] The assay was quenched upon spotting 30 μL aliquots onto 2 cm^2 pieces of Whatman DE81 anion exchange paper. The papersquares were washed for 3 minutes in 6 L distilled/deionized water to remove the unreacted adenosine. The washed squares were rinsed in 95% ethanol and dried in an oven at 100° C. for 10 minutes. The amount of ^14 C-AMP was quantified by scintillation counting.

male SA rats [1] = assay: rat skin lesion model, inhibition of neutrophil accumulation induced by carrageenan; assay type: in vivo
Protocol: The dorsal skin of male SA rats was shaved and carrageenan (Type λ) or phosphate-buffered saline was injected intradermally. Three hours later, the injection sites were biopsied and weighed. Neutrophil content of the skin biopsies was measured as the quantity of myeloperoxidase (MPO) present in a tissue homogenate. The excised, weighed skin pieces were placed in 4 ml 0.5% mixed alkyl trimethylammonium bromide and homogenized at the highest speed for 15 seconds in a Polytron homogenizer (Brinkmann Instruments, Westbury, N.Y.). Lipids were extracted by adding 1 ml of dichloromethane to the homogenate, vortexing vigorously, and centrifuging at 1000 g, 5° C. for 15 min. Fifty μl of each supernatant was added in duplicate to a 96 well assay plate, along with dilutions of human myeloperoxidase standard. Potassium phosphate buffer (pH 6.1) containing 0.36 mg/ml of o-dianisidine dihydrochloride and 0.001% hydrogen peroxide was added (200 μl/well), and the absorbance at 450 nm was read after 5 min incubation at room temperature. The myeloperoxidase content of each skin piece was calculated from a standard curve constructed using least-square regression, and expressed as units of MPO/g of tissue.
AK inhibitors were administered orally using polyethylene glycol-400 as vehicle or intraperitoneally using dimethylsulfoxide as vehicle, at indicated time before skin lesion injection. For each experiment, the average of all values from saline-induced lesions was calculated. This baseline value was then subtracted from values obtained from carrageenan-induced lesions. Percent inhibition for AK inhibitors were calculated from these baseline-corrected values.

Rats = assay: anti-inflammatory activity, carrageenan paw; assay type: in vivo, rat; settings: 10 mg/kg, swelling after 3 hours; for Carrageenan Paw (% inh) i.p.: 30 min before carrageenan; for Carrageenan Paw (% inh) p.o.: 1 h before carrageenan
Protocol: Carrageenan (Type λ) was suspended in sterile PBS at 1% (w/v), autoclaved for 30 minutes, and stored at room temperature. Rats were pretreated with vehicle or AK inhibitor (10 mg/kg) by oral gavage or i.p. administration and the volume of the left hind paw was measured using a water displacement plethysmometer (Stoelting Co., Wood Dale, Ill.). One hour after oral treatment or 30 minutes after i.p. treatment, the rats were briefly anaesthetized, and 0.1 ml of the carrageenan solution was injected subcutaneously into the planar surface of the left hind paw. The ensuing paw swelling was measured by plethysmometry after 3 hours. The paw volume in milliliters was subtracted from the pre-injection paw volume. Data are presented in Table 8 as the percent inhibition of paw swelling in AK inhibitor treated animals, compared to vehicle treated control animals.

Rats (male, Simonsen) = assay: formalin paw model; assay type: in vivo, rat; parameters: concentration or dose not given beside the values; settings: oral, 90 min before formalin; for % Inhibition Phase 1 Composite score: 1.7-5 min post-formalin; for % Inhibition Phase 2 Composite score: 10.3-30 min post-formalin
Protocol: In this assay, injection of formalin, an irritant, into the hindpaw of rats typically evokes a biphasic response of pain-related behaviors. Phase 1 of the response which is brief, lasting approximately 0-5 min post-injection,is followed by a more prolonged phase 2, lasting approximately 10-80 min post-injection. Phase 1 behavior is thought to be a direct effect of the irritant on nociceptors at the injection site while phase 2 behavior is thought to include a hyperalgesic component mediated by sensitization of neuronal elements within the spinal cord. Studies from other laboratories have found the first portion of Phase 2 (sometimes referred to as Phase 2a) to be most responsive to pharmacological manipulation.
Rats (male, Simonsen) weighing between 100-200 g, are used in the present experiments. For screening purposes drugs are administered orally 90 min prior to initiation of formalin test. At designated intervals the animals in groups of 4 are placed individually in a small animal restrainer with the right hindpaw accessible through a hole in the bottom of the restrainer. The formalin paw assay is initiated by the injection using a 30G needle of 50 μl of a 5% formalin solution in saline into the right plantar surface of each hindpaw. The rat is then immediately placed in a separate plexiglass box and scoring (described below) of the animal's behavior is begun at 1.7 min after formalin injection. The instantaneous behavior of each animal in a group of 4 was observed and assigned a score once in each 20 second interval. This sequence is repeated over a 30 min period. The scoring protocol is an adaptation of the method published by Dubuisson and Dennis (Pain 4:161-174, 1977) which assigns a score from 0-3 as follows:
0--no discernible favoring of injected paw, weight evenly distributed
1--injected paw is favored, rests lightly on floor
2--injected paw is elevated
3--injected paw is vigorously licked, bitten or shake
Scores are continuously recorded directly onto an Excel spreadsheet. […] 2) the total number of incidences specifically of licking/biting behavior is summed over Phase 2 and mean values determined from 6 different animals with results expressed as % inhibition compared to vehicle control.

Female SA rats = assay: liver toxicity, serum SGOT, SGPT and total bilirubin; assay type: in vivo, rat; parameters: unit not given here; settings: 2 x 37.5 μmol/kg i.v. infusion (total 75 μmol/kg), 12 h after second dose
Protocol: Female SA rats (150-200 g) were anesthetized with halothane and cannulated via the internal jugular vein. The animals were allowed to recover for 3 days. […] Twelve hours later, an additional 37.5 μmol kg was infused over 40 minutes (total dose=75 μmol/kg). Twelve hours after the second dose, the animals were anesthetized with halothane and exsanguinated through the descending aorta. Serum was prepared and liver enzymes (serum glutamic-oxaloacetic transaminase (SGOT), serum glutamic-pyruvic transaminase (SGPT)) and total bilirubin in the serum samples were determined by a commercial laboratory.

male SA rats [2] = assay: anticonvulsant activity, maximal electroshock (MES) model; assay type: in vivo; settings: Rattus norvegicus, ip, 1 h before MES; >5 / <5: fewer / more than 50% of animals inhibited at 5 mg/kg in initial screen
Protocol: The anticonvulsant activity of the tested compounds was evaluated in male SA rats (100-150 g, Simonsen) using the maximal electroshock (MES) model described in Swinyard et al., Antiepileptic Drugs, 3d Ed. at 85-102 (Levy, et al., eds.), NY: Raven Press (1989). The rats were maintained on a 12/12 light/dark cycle in temperature controlled facilities with free access to food and water. For p.o. administration, the animals are fasted overnight, prior to the experiment. One hour prior to seizure testing, the animals were injected interperitoneally (ip) or orally (per os, po) with one of various doses of test compound dissolved in DMSO or PEG 400.
Maximal electroshock seizures (MES) were induced by administering a 150 mA, 60 Hz current for 0.2 seconds via corneal electrodes using a Wahlquist Model H stimulator. […] This endpoint was expressed as the percentage of animals in which the response was inhibited. Typically, compounds were screened initially at one hour following a dose of 5 mg/kg ip. […] The results for exemplary compounds of the invention are set forth in Table 8, expressed as ED50 values.

| IC50 (adenosine kinase) [µM] | Compound | Carrageenan Paw (% inh) i.p. (Rats) [%] | average serum Total Bilirubin (Female SA rats) | average serum content of SGOT (Female SA rats) | average serum content of SGPT (Female SA rats) | Carrageenan Paw (% inh) p.o. (Rats) [%] | ED50 at 5 mg/kg (male SA rats [2]) [mg/kg] | other results |
| --- | --- | --- | --- | --- | --- | --- | --- | --- |
| 0.045 | 4-N-Phenylamino-5-phenyl-7-(4-C-methyl-β-D-ribofuranosyl)pyrrolo[2,3- d]pyrimidine [#81] | 46 | – | – | – | – | – | % inhibition of neutrophil accumulation (male SA rats [1]; p.o., pretreatment 60 min, 10 mg/kg): 0%; % inhibition of neutrophil accumulation (male SA rats [1]; p.o., pretreatment 60 min, 20 mg/kg): 26%; % inhibition of neutrophil accumulation (male SA rats [1]; p.o., pretreatment 60 min, 30 mg/kg): 40%; % Inhibition Phase 1 Composite score (Rats (male, Simonsen)): 24.8%; % Inhibition Phase 2 Composite score (Rats (male, Simonsen)): 35.1%; % Inhibition Phase 2. Licking/biting (Rats (male, Simonsen)): 67.8% |
| – | O[C@@H]1[C@H](O)CO[C@H]1n1cc(-c2ccc(F)cc2)c2c(Nc3ccc(F)cc3)ncnc21 [#29] | – | 0.16 | 130 | 30 | – | – | – |
| 0.0035 | O[C@@H]1[C@H](O)CO[C@H]1n1cc(-c2ccccc2)c2c(Nc3ccc(CCN4CCNCC4)cc3)ncnc21 [#43, 4-N-[4-(2-(1-Piperazino)ethyl)phenyl]amino-5-phenyl-7-(β-D-erythrofuranosyl)pyrrolo[2,3-d]pyrimidine trihydrochloride salt] | 65 | 0.1 | 99 | 58 | 34 | – | – |
| 0.0012 | OCC1(CO)O[C@@H](n2cc(-c3ccccc3)c3c(Nc4ccccc4)ncnc32)[C@H](O)[C@@H]1O [compound 1] | 3 | 0.1 | 65 | 53 | 18 | – | – |
| 0.004 | O[C@@H]1[C@H](O)CO[C@H]1n1cc(-c2ccccc2)c2c(Nc3ccccc3)ncnc21 [compound 27] | 44 | 0.14 | 114 | 41 | 12 | < 5 | % inhibition of neutrophil accumulation (male SA rats [1]; i.p., pretreatment 30 min, 3 mg/kg): 2%; % inhibition of neutrophil accumulation (male SA rats [1]; i.p., pretreatment 30 min, 10 mg/kg): 59%; % inhibition of neutrophil accumulation (male SA rats [1]; i.p., pretreatment 30 min, 30 mg/kg): 89%; % inhibition of neutrophil accumulation (male SA rats [1]; i.p., pretreatment 60 min, 10 mg/kg): 60%; % inhibition of neutrophil accumulation (male SA rats [1]; i.p., pretreatment 120 min, 10 mg/kg): 14%; % inhibition of neutrophil accumulation (male SA rats [1]; i.p., pretreatment 180 min, 10 mg/kg): 2%; % inhibition of neutrophil accumulation (male SA rats [1]; i.p., pretreatment 240 min, 10 mg/kg): 0%; % inhibition of neutrophil accumulation (male SA rats [1]; i.p., pretreatment 360 min, 10 mg/kg): 0%; % Inhibition Phase 1 Composite score (Rats (male, Simonsen)): 25.5%; % Inhibition Phase 2 Composite score (Rats (male, Simonsen)): 47.6%; % Inhibition Phase 2. Licking/biting (Rats (male, Simonsen)): 77.5% |
| 0.07 | CN(C)Cc1ccc(Nc2ncnc3c2c(-c2ccccc2)cn3[C@@H]2O[C@@](C)(CO)[C@@H](O)[C@H]2O)cc1 [compound 64] | – | – | – | – | – | > 5 | – |
| 2 | C[C@]1(CO)O[C@@H](n2cc(-c3ccccc3)c3c(Nc4ccccc4)ncnc32)[C@H](O)[C@@H]1O [compound 81] | – | – | – | – | – | – | – |
| 0.0003 | O[C@H]1[C@H](n2cc(-c3ccccc3)c3c(Nc4ccc(F)cc4)ncnc32)OC2(CC2)[C@H]1O [compound 150] | 78 | 1.58 | 560 | 155 | 80 | 0.23 | – |
| 0.6 | Nc1ncnc2c1c(I)cn2[C@@H]1OC2(CC2)[C@@H](O)[C@H]1O [compound 175] | – | – | – | – | – | – | – |
| 0.04 | O[C@@H]1[C@H](O)CO[C@H]1n1cc(-c2ccccc2)c2c(Nc3ccc(Cl)cc3)ncnc21 [compound 299] | 20 | – | – | – | 28 | – | – |
| 0.006 | Nc1ncnc2c1c(I)cn2[C@@H]1OC[C@@H](O)[C@H]1O [compound 300] | 90 | – | – | – | 91 | – | – |
| 0.001 | O[C@@H]1[C@H](O)CO[C@H]1n1cc(-c2ccccc2)c2c(Nc3ccc(CCN4CCOCC4)cc3)ncnc21 [compound 301] | 21 | – | – | – | 39 | – | – |
| 0.4 | COC[C@]1(CO)O[C@@H](n2cc(-c3ccccc3)c3c(Nc4ccc(F)cc4)ncnc32)[C@H](O)[C@@H]1O [compound 352] | – | – | – | – | – | – | – |
| 0.024 | COC[C@@]1(CO)O[C@@H](n2cc(-c3ccccc3)c3c(Nc4ccc(F)cc4)ncnc32)[C@H](O)[C@@H]1O [compound 372] | – | – | – | – | – | > 5 | – |
| 1.1 | NC[C@]1(CO)O[C@@H](n2cc(-c3ccccc3)c3c(Nc4ccc(F)cc4)ncnc32)[C@H](O)[C@@H]1O [compound 392] | – | – | – | – | – | – | – |
| 0.09 | O[C@@H]1[C@H](O)CO[C@H]1n1nc(-c2ccc(Cl)cc2)c2c(Nc3ccccc3)ncnc21 [compound 432] | 24 | – | – | – | 15 | > 5 | – |
